Measured values from patent publication US8513234B2, “HIV integrase inhibitors” (Merck Sharp & Dohme Corp., priority 2008, dated 2013).
Read-outs that look alike come from different tables or passages of the source.

Tests used:
wild type IIIB = experiment: Single cycle infectivity assay in HeLa P4-2 cells, wild type virus; assay type: cell-based, HIV; conditions: single cycle infectivity, wild type IIIB, read-out: wild type IIIB IC50
[1] = molecular target: T1, recombinant integrase (HIV-1 integrase) (Human immunodeficiency virus type 1 group M subtype B, UniProt P04585); experiment: HIV-1 integrase assay: strand transfer catalyzed by recombinant integrase; assay type: biochemical; conditions: strand transfer activity
T1 construct: Assays for the strand transfer activity of integrase were conducted in accordance with WO 02/30930 for recombinant integrase
Procedure: HIV-1 Integrase Assay: Strand Transfer Catalyzed by Recombinant Integrase
Assays for the strand transfer activity of integrase were conducted in accordance with WO 02/30930 for recombinant integrase. […] For example, the compounds prepared in Examples 1 to 5 were tested in the integrase assay and found to have the IC50 values in Table B. (Compounds 6A and 6B were not tested in this assay.)
Further description on conducting the assay using preassembled complexes is found in Wolfe, A. L. et al., J. Virol. 1996, 70: 1424-1432, Hazuda et al., J. Virol. 1997, 71: 7005-7011; Hazuda et al., Drug Design and Discovery 1997, 15: 17-24; and Hazuda et al., Science 2000, 287: 646-650.

HIV-1 = experiment: Inhibition of acute HIV-1 infection of T-lymphoid cells (spread assay); assay type: cell-based
Procedure: Assay for Inhibition of HIV-1 Replication
Assays for the inhibition of acute HIV-1 infection of T-lymphoid cells were conducted in accordance with Vacca, J. P. et al, Proc. Natl. Acad. Sci. USA 1994, 91: 4096.

[2] = test system: virus containing G140S/Q148H mutation in the integrase gene; conditions: k = IC50(mutant)/IC50(wild type)
Procedure: (§1) An assay for measuring the inhibition of acute HIV infection with HeLa P4-2 cells in a single cycle infectivity assay was conducted using methods described in Joyce et al., J. Biol. Chem. 2002, 277: 45811, Hazuda et al., Science 2000, 287: 646, and Kimpton et al, J. Virol. 1992, 66: 2232. Proviral plasmids encoding viruses containing specific mutations in the integrase gene (N155H, Q148R, Y143R, E92Q, or G140S/Q148H) were generated by site-directed mutagenesis, and viruses were produced by transfecting 293T cells with the appropriate proviral plasmids.

[3] = test system: virus containing Y143R mutation in the integrase gene; conditions: k = IC50(mutant)/IC50(wild type)
Procedure: as §1

[4] = test system: virus containing N155H mutation in the integrase gene; conditions: k = IC50(mutant)/IC50(wild type)
Procedure: as §1

[5] = test system: virus containing Q148R mutation in the integrase gene; conditions: k = IC50(mutant)/IC50(wild type)
Procedure: as §1

[6] = Human immunodeficiency virus 1, IIIB, HeLaP4-2, HeLa P4-2 cells

SMILES	IC50 (wild type IIIB; [6])	IC50 ([1]; read-out: IC50)	IC95 (nM) in the presence of 10% FBS (HIV-1)	Number of fold shift in IC50 versus wild type IIIB, G140S/Q148H [2]	Number of fold shift in IC50 versus wild type IIIB, Y143R [3]	Number of fold shift in IC50 versus wild type IIIB, N155H [4]	Number of fold shift in IC50 versus wild type IIIB, Q148R [5]	IC50 ([1]; IC50 (nM))	IC50 (wild type IIIB; HeLa P4-2 cells)
Cc1cc(CNC(=O)c2nc3n(c(=O)c2O)[C@@H](C)COC[C@@H]3N(C)C(=O)C(=O)N(C)C)ccc1F [Compound 4B, N-((6S,10R)-2-{[(4-fluoro-3-methylbenzyl)amino]carbonyl}-3-hydroxy-6-methyl-4-oxo-6,7,9,10-tetrahydro-4H-pyrimido[1,2-d][1,4]oxazepin-10-yl)-N,N′,N′-trimethylethanediamide]	32 nM	39 nM	7 nM	20	2	2	3	–	–
Cc1ccc(CNC(=O)c2nc3n(c(=O)c2O)[C@H](C)CCC[C@H]3N(C)C(=O)C(=O)N(C)C)cc1F (racemic) [Compound 3A, Racemic-trans-N-(2-{[(3-fluoro-4-methylbenzyl)amino]carbonyl}-3-hydroxy-6-methyl-4-oxo-4,6,7,8,9,10-hexahydropyrimido[1,2-a]azepin-10-yl)-N,N′,N′-trimethylethanediamide]	31 nM	40 nM	18 nM	4	–	1	1	–	–
Cc1ccc(CNC(=O)c2nc3n(c(=O)c2O)C(C)CCCC3N(C)C(=O)C(=O)N(C)C)cc1F (single isomer, unassigned) [Compound 3B, Cis-N-(2-{[(3-fluoro-4-methylbenzyl)amino]carbonyl}-3-hydroxy-6-methyl-4-oxo-4,6,7,8,9,10-hexahydropyrimido[1,2-a]azepin-10-yl)-N,N′,N′-trimethylethanediamide]	48 nM	–	41 nM	2	1	1	1	44 nM	–
CN(C)C(=O)C(=O)N(C)C1COCCn2c1nc(C(=O)NCc1ccc(F)cc1)c(O)c2=O (single isomer, unassigned; (+)) [Compound V, (+)N-(2-{[(4-fluorobenzyl)amino]carbonyl}-3-hydroxy-4-oxo-6,7,9,10-tetrahydro-4h-pyrimido[1,2-d][1,4]oxazepin-10-yl)-N,N′,N′-trimethylethanediamide, reference compound]	37 nM	–	–	>32	1	10	13	–	–
CCN(C(=O)C(=O)N(C)C)[C@H]1CC[C@H](OC)Cn2c1nc(C(=O)NCc1ccc(F)cc1)c(O)c2=O [Compound 6B, N-ethyl-N-((7S,10S)-2-{[(4-fluorobenzyl)amino]carbonyl}-3-hydroxy-7-methoxy-4-oxo-4,6,7,8,9,10-hexahydropyrimido[1,2-a]azepin-10-yl)-N,N-dimethylethanediamide]	13 nM	–	14 nM	>100	>100	13	>100	–	–
CN(C)C(=O)C(=O)N(C)C1COCCn2c1nc(C(=O)NCc1ccc(F)cc1)c(O)c2=O (single isomer, unassigned; (-)) [Compound W, (−)N-(2-{[(4-fluorobenzyl)amino]carbonyl}-3-hydroxy-4-oxo-6,7,9,10-tetrahydro-4h-pyrimido[1,2-d][1,4]oxazepin-10-yl)-N,N′,N′-trimethylethanediamide, reference compound]	–	–	–	>73	3	29	67	–	26 nM
